Reference: patent publication US5510353A, “Certain aminoguanidine compounds, pharmaceutical compositions containing them and their use in treating gastrointestinal motility disorders and disorders associated with cephalic pain” (Sandoz Ltd., priority 1991, dated 1996)

Columns and labels:
[1] = tested on: small intestine of Beagle dogs; experiment: Myoelectric activity of the small intestine in Beagle dogs (implanted electrodes); assay type: in vivo; settings: Canis lupus familiaris, sc, read-out: threshold dose for stimulating myoelectric activity
Description: Monopolar electrodes are implanted on the serosal side of the gut wall along the small intestine of Beagle dogs. From these electrodes, signals are fed into a preamplifier and filtered for the registration of low and high frequency potentials, in order to separate slow waves from spikes. The number of spike bursts occuring in 2 min. periods are determined. From this the following data are extracted: duration of phase I--III, interval between 2 consecutive phase III blocks, and propagation velocity. One or two cycles are recorded prior to drug administration which is done subcutaneously 10-15 min after a Phase III has passed the most distal electrodes. Control experiments are performed routinely by means of solvent administration. In fed dogs, the number of spikes per 30 min. is determined additionally. In this test the compounds of the invention stimulate myoelectric activity at dosages of the order of from about 0.001 to 10 mg/kg s.c.

[2] = tested on: isolated guinea-pig ileum; experiment: Peristaltic reflex in the isolated guinea-pig ileum; assay type: cell-based; settings: Cavia porcellus, 0.25 h, 15 min contact, read-out: pEC50 value, stimulatory effect on the peristaltic activity (converted)
Description: Furthermore, the stimulatory effect on gastrointestinal motility of compounds of the invention is also indicated e.g. by their effects on the peristaltic reflex in the isolated guinea-pig ileum.
Male guinea-pigs, 200-400 g are stunned and bled. Segments of terminal ileum, 4-5 cm long, are removed and suspended as described by Trendelenburg in Arch. Exp. Path. Pharmakol., 81, 55-129 (1917), in a 20 ml organ bath under an initial load of 1 g. The tissue is bathed with a modified Krebs solution (NaCl 118.6; CaCl2 2.7; KCl 4.7; KH2 PO4 1.2; MgSO4 0.1; NaHCO3 25.0; and glucose 5.6 mM), maintained at 37° C. and bubbled with 5% CO2 in oxygen. Peristalsis is elicited for 30 s by increasing the intraluminal pressure from zero by 1 to 4 cm H2 O. Measurements are made of longitudinal muscle responses by using an isotonic force-displacement transducer and of circular muscle activity by employing a pressure transducer. The area under the curve (AUG) of peristaltic contractions is determined and concentration response curves are established by plotting the AUC representing the circular and longitudinal muscle activity. Each preparation is used as its own control, taking the peristaltic activity before the administration of the compounds to be tested as 100%. Compounds to be tested are added to the serosal side and are left in contact with the tissue for 15 min. In this test compounds of the invention have a stimulatory effect on the peristaltic activity at concentrations of the order of from about 10^-10 M to 10^-7 M.

5HT-1D receptors = experiment: Binding affinity to 5HT-1D receptors (Waeber et al.); settings: 5HT-1D receptor binding
Source text: Compounds of the invention also have an agonist effect on 5HT-1D receptors. Their binding affinity to 5HT-1D receptors has been determined e.g. according to the method disclosed by C. Waeber et al., Naunyn-Schmiedeberg,s Arch. Pharmacol., 337, 595-601 (1988).

5-HT1D receptor = experiment: Contraction of pig anterior cerebral artery segments (5-HT1D mediated); assay type: cell-based; settings: vascular contraction, ketanserin 10^-7 M present
Description: Anterior cerebral arteries are excised from pig brains obtained from the local slaughterhouse. Circular segments of 3-4 mm length are mounted between two L-shaped metal prongs and placed in temperature-controlled (37° C.) organ baths filled with Krebs solution that is continuously gassed with 5% CO2 in oxygen. Agonist-induced vascular contractions are measured isometrically. In order to measure only 5-HT1D receptor mediated effects, ketanserin (10^-7 M), which prevents contractions via 5-HT2 receptors, is added to the bath solution. Compounds of the invention induce vascular contractions at a concentration of from 10^-10 to 10^-5 M, particularly 10^-9 to 10^-7 M. In this test, it has been determined that compound of Example 63 has a pD2 value of 9.0.

5-HT4 receptors = target: T1, 5-HT4 receptors (Cavia porcellus, UniProt O70528); experiment: Antagonism of 5-HT-induced contraction, longitudinal muscle strip of guinea pig ileum (5-HT4); assay type: cell-based; settings: methysergide 0.1 μM present, read-out: pA2 value (converted)
T1 construct: The isolated longitudinal muscle of the guinea pig ileum with its adhering myenteric plexus; from tissue; host or cells: guinea pig ileum longitudinal muscle strip with adhering myenteric plexus
Source text: The isolated longitudinal muscle of the guinea pig ileum with its adhering myenteric plexus is a well established model which permits investigations of the mechanism of action of various neurotransmitters.
Male guinea pigs (200-400 g) are killed by a blow on the head and exsanguinated. A length of small intestine is removed about 2 cm from the ileo-caecal valve. The ileum is stretched over a glass rod and the mesentery is carefully removed. By strocking tangentially away from the mesenteric attachment with a wad of cotton wool, the longitudinal muscle layer is separated and stripped from the underlying circular muscle. Longitudinal muscle strips, 3-4cm length, are mounted in a 10 ml organ bath containing Tyrode solution at 37° C. and bubbled with a 5% carbon dioxide in oxygen. The Tyrode solution is of the following composition (mmol/1): NaCl 137.0; CaCl2 1.8; KCl 2.7; MgCl2 1.05; NaHCO3 11.9; NaHPO4 0.4; glucose 5.6; and methysergide 0.1 μM. The strips are maintained under a resting tension of 500 mg. Contractions are recorded with an isotonic pendulum lever. After equilibration for 30 min a set concentration of carbachol is applied in 10 min intervals until a consistent reaction is achieved.
Non-cumulative concentration-response curves for 5-HT are established by adding increasing concentrations of the agonist to the organ bath at intervals of at least 15 min. […] Each concentration is left in contact with the tissue for 1 min. Each strip is only used to record two concentration-response curves; the first for 5-HT alone and the second for 5-HT in the presence of a set concentration of antagonist, each strip thus serving as its own control. Antagonists are allowed to preequilibrate for at least 10 min prior to addition of 5-HT. The contractions expressed as percentage of the maximal response to 5-HT obtained from several preparations are plotted as mean values in order to obtain log-concentration-response curves. Inhibition constants are expressed in the form of pA2 values which are graphically determined according to conventional methods (Arunlakshana et al, 1959, McKay 1978). […]

T1 sequence (O70528 whole entry): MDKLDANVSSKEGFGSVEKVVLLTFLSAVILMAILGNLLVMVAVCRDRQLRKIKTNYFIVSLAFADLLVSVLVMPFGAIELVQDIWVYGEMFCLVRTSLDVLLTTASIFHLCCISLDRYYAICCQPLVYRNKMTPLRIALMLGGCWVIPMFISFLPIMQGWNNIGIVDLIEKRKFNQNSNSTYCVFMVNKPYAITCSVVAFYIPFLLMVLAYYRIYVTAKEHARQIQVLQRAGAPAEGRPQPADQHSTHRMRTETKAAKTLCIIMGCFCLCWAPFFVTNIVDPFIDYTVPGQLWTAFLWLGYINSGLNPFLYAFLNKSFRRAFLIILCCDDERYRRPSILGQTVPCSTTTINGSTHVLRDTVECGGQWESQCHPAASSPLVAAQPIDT

Structure (SMILES) | EC50 [2] [nM] | Kb (5-HT4 receptors) [nM] | also measured
COc1cc(N)c(Cl)cc1C(=O)NC1CCN(CCCOc2ccc(F)cc2)CC1OC (stereo not shown) [Cisapride, reference compound] | > 100 | – | minimal effective dose [1]: 0.3 mg/kg
CCCCCNC(=N)NN=Cc1c[nH]c2ccc(OC)cc12 [Example 13] | 1 | – | minimal effective dose [1]: 0.03 mg/kg
CCCCCNC(=N)NN=Cc1c[nH]c2ccc(C(N)=O)cc12 [Example 63] | – | – | pKD value (5HT-1D receptors): 8.55; pD2 value (5-HT1D receptor): 9.0
CCCCCNC(=N)NN=Cc1c[nH]c2c(C)cc(O)cc12 [Example 89] | – | 7.94 | –

Now from value to molecule, other results behind:

EC50 [2] [nM] | Kb (5-HT4 receptors) [nM] | Structure (SMILES) | also measured
– | 10 | CCCCCNC(=N)NN=Cc1cn(CC)c2ccc(O)cc12 [Example 90] | –
– | 5.01 | CCCCCN(C)C(=N)NN=Cc1c[nH]c2c(C)cc(O)cc12 [Example 97] | –
2000 | – | CCN(CC)CCNC(=O)c1cc(Cl)c(N)cc1OC [metoclopramide] | –
